Experimental data reported in PubChem BioAssay AID248 (DTP/NCI, 2004).
Where “and” joins values, the source holds several entries; their conditions need not be identical. Identical values can stand only once. Inconclusive results and toxic doses are left out. Rule as the data show it: active = T/C of 150% or more; inactive = T/C below 125%.

Tested on: L1210 leukemia ip in BDF1 mice, survival T/C
Test: NCI In Vivo Anticancer Drug Screen. Data for tumor model L1210 Leukemia (intraperitoneal) in B6D2F1 (BDF1) mice
Details: endpoint: mean survival time, higher = longer survival
Method in brief: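 Mice bearing the transplanted tumor received compound or vehicle. Survival of the treated group was divided by that of the vehicle-treated control group to give the ratio.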

[1] = dose: 100.0 mg/kg/injection, schedule: Q01DX009 (ip), vehicle: saline with Tween-80
[2] = dose: 200.0 mg/kg/injection, schedule: Q01DX009 (ip), vehicle: saline with Tween-80
[3] = dose: 100.0 mg/kg/injection, schedule: Q01DX009 (ip), vehicle: Klucel (hydroxypropylcellulose) (HPC)
[4] = dose: 200.0 mg/kg/injection, schedule: Q01DX009 (ip), vehicle: Klucel (hydroxypropylcellulose) (HPC)
[5] = dose: 400.0 mg/kg/injection, schedule: Q01DX009 (ip), vehicle: Klucel (hydroxypropylcellulose) (HPC)
[6] = dose: 100.0 mg/kg/injection, schedule: Q04DX002 (ip), vehicle: saline
[7] = dose: 200.0 mg/kg/injection, schedule: Q04DX002 (ip), vehicle: saline
[8] = dose: 100.0 mg/kg/injection, schedule: Q04DX003 (ip), vehicle: Klucel (hydroxypropylcellulose) (HPC)
[9] = dose: 200.0 mg/kg/injection, schedule: Q04DX003 (ip), vehicle: Klucel (hydroxypropylcellulose) (HPC)
[10] = dose: 400.0 mg/kg/injection, schedule: Q04DX003 (ip), vehicle: Klucel (hydroxypropylcellulose) (HPC)

Measured: T/C

O=C1OC(C(O)CO)C(=O)C1=O (stereo unspecified)
inactive: dose: 50.0 mg/kg/injection, schedule: Q01DX009 (ip), vehicle: saline with Tween-80 97 % of control | dose: 100.0 mg/kg/injection, schedule: Q01DX001 (ip), vehicle: water 102 % of control | [1] 97 % of control | dose: 100.0 mg/kg/injection, schedule: Q01DX009 (ip), vehicle: water 105 % of control | dose: 100.0 mg/kg/injection, schedule: Q04DX003 (ip), vehicle: water 104 % of control | dose: 200.0 mg/kg/injection, schedule: Q01DX001 (ip), vehicle: water 107 % of control | [2] 101 % of control | dose: 200.0 mg/kg/injection, schedule: Q01DX009 (ip), vehicle: water 106 % of control | dose: 200.0 mg/kg/injection, schedule: Q04DX003 (ip), vehicle: water 109 % of control | dose: 400.0 mg/kg/injection, schedule: Q01DX001 (ip), vehicle: water 107 % of control | dose: 400.0 mg/kg/injection, schedule: Q01DX009 (ip), vehicle: water 116 % of control | dose: 400.0 mg/kg/injection, schedule: Q04DX003 (ip), vehicle: water 115 % of control | dose: 800.0 mg/kg/injection, schedule: Q01DX001 (ip), vehicle: water 102 % of control | dose: 800.0 mg/kg/injection, schedule: Q01DX009 (ip), vehicle: water 111 % of control | dose: 800.0 mg/kg/injection, schedule: Q04DX003 (ip), vehicle: water 121 % of control

c1ccc(C(Nc2ccccn2)(c2ccccc2)c2ccccc2)cc1
inactive: dose: 100.0 mg/kg/injection, schedule: Q04DX002 (ip), vehicle: saline with Tween-80 104 % of control | dose: 200.0 mg/kg/injection, schedule: Q04DX002 (ip), vehicle: saline with Tween-80 101 % of control | dose: 400.0 mg/kg/injection, schedule: Q04DX002 (ip), vehicle: saline with Tween-80 93 % of control

Cc1cc(C)c(NC(=O)C(C)(C)C)c(C)c1
inactive: [3] 96 % of control and 100 % of control | [4] 102 % of control | [5] 96 % of control and 100 % of control

CCCC(C(=O)OCCNC1CCCCC1)c1ccccc1 (stereo unspecified)
inactive: dose: 75.0 mg/kg/injection, schedule: Q01DX001 (ip), vehicle: saline 104 % of control

O=C(O)C1(Nc2ccc(-c3ccc(Br)cc3)cc2)CCCC1
inactive: dose: 50.0 mg/kg/injection, schedule: Q01DX001 (ip), vehicle: carboxymethylcellulose (CMC) 90 % of control | dose: 100.0 mg/kg/injection, schedule: Q01DX001 (ip), vehicle: carboxymethylcellulose (CMC) 90 % of control | dose: 200.0 mg/kg/injection, schedule: Q01DX001 (ip), vehicle: carboxymethylcellulose (CMC) 90 % of control | dose: 400.0 mg/kg/injection, schedule: Q01DX001 (ip), vehicle: carboxymethylcellulose (CMC) 90 % of control

O=C1OC(c2ccc(Cl)cc2)=N/C1=C\c1ccc(Cl)c(Cl)c1
inactive: [6] 106 % of control | [7] 92 % of control | dose: 400.0 mg/kg/injection, schedule: Q04DX002 (ip), vehicle: saline 100 % of control

N=c1ncn(Cc2ccccc2)c2nc[nH]c12
inactive: [3] 91 % of control | [4] 101 % of control

CC(=O)c1cn(C2CC(O)C(CO)O2)c(=O)[nH]c1=O (stereo unspecified)
inactive: dose: 50.0 mg/kg/injection, schedule: Q01DX001 (ip), vehicle: saline 117 % of control | dose: 50.0 mg/kg/injection, schedule: Q04DX002 (ip), vehicle: saline 96 % of control | dose: 100.0 mg/kg/injection, schedule: Q01DX001 (ip), vehicle: saline 111 % of control | [6] 105 % of control | dose: 200.0 mg/kg/injection, schedule: Q01DX001 (ip), vehicle: saline 105 % of control | [7] 121 % of control

Cc1ccc(C)c(NC(=O)c2ccccc2Cl)c1
inactive: [3] 115 % of control | [8] 102 % of control | [4] 120 % of control | [9] 100 % of control | [5] 120 % of control | [10] 97 % of control

CC(C)CCC(C)C1CCC2C3CC([N+](=O)[O-])=C4CC(OC(=O)c5ccccc5)CCC4(C)C3CCC12C (stereo unspecified)
inactive: [1] 103 % of control | [2] 90 % of control | dose: 400.0 mg/kg/injection, schedule: Q01DX009 (ip), vehicle: saline with Tween-80 90 % of control

CN(Cc1cnc2nc(N)c(Br)c(N)c2n1)c1ccc(C(=O)NC(CCC(=O)O)C(=O)O)cc1 (stereo unspecified)
inactive: dose: 100.0 mg/kg/injection, schedule: Q04DX002 (ip), vehicle: sodium bicarbonate 96 % of control | dose: 200.0 mg/kg/injection, schedule: Q04DX002 (ip), vehicle: sodium bicarbonate 96 % of control

CC1(C)N=C(N)N=C(N)N1c1ccc(C(=O)Nc2ccc(S(=O)(=O)F)cc2)cc1
inactive: dose: 0.8 mg/kg/injection, schedule: Q01DX009 (ip), vehicle: saline 101 % of control | dose: 4.0 mg/kg/injection, schedule: Q01DX009 (ip), vehicle: saline 100 % of control | dose: 20.0 mg/kg/injection, schedule: Q01DX009 (ip), vehicle: saline 95 % of control | dose: 100.0 mg/kg/injection, schedule: Q01DX009 (ip), vehicle: saline 97 % of control | dose: 500.0 mg/kg/injection, schedule: Q01DX009 (ip), vehicle: saline 101 % of control

CSc1ccc(N2C(=O)C3C(C2=O)C2(Cl)C(Cl)=C(Cl)C3(Cl)C2(Cl)Cl)cc1 (stereo unspecified)
inactive: [3] 105 % of control | [8] 101 % of control | [4] 100 % of control | [9] 104 % of control | [5] 103 % of control | [10] 98 % of control

CCCCN1C(=O)c2c(Cl)c(Cl)c(Cl)c(Cl)c2C1=O
inactive: dose: 200.0 mg/kg/injection, schedule: Q04DX002 (ip), vehicle: other 94 % of control | dose: 400.0 mg/kg/injection, schedule: Q04DX002 (ip), vehicle: other 92 % of control

O=C(NCCCl)NC1CCc2ccccc21 (stereo unspecified)
inactive: dose: 20.0 mg/kg/injection, schedule: Q04DX003 (ip), vehicle: Klucel (hydroxypropylcellulose) (HPC) 92 % of control | dose: 40.0 mg/kg/injection, schedule: Q04DX003 (ip), vehicle: Klucel (hydroxypropylcellulose) (HPC) 92 % of control | dose: 80.0 mg/kg/injection, schedule: Q04DX003 (ip), vehicle: Klucel (hydroxypropylcellulose) (HPC) 91 % of control | [8] 95 % of control | [9] 106 % of control

CCC[CH2][Sn]([CH2]CCC)=[N]S(=O)(=O)c1ccc(Cl)c(C)c1
inactive: dose: 5.0 mg/kg/injection, schedule: Q01DX001 (ip), vehicle: saline 98 % of control | dose: 10.0 mg/kg/injection, schedule: Q01DX001 (ip), vehicle: saline 98 % of control | dose: 20.0 mg/kg/injection, schedule: Q01DX001 (ip), vehicle: saline 109 % of control

CSc1ncnc2c1ncn2NC(C)=O
inactive: dose: 88.0 mg/kg/injection, schedule: Q01DX009 (ip), vehicle: other 107 % of control | dose: 100.0 mg/kg/injection, schedule: Q01DX001 (ip), vehicle: other 98 % of control | dose: 134.0 mg/kg/injection, schedule: Q01DX009 (ip), vehicle: other 104 % of control | dose: 200.0 mg/kg/injection, schedule: Q01DX001 (ip), vehicle: other 104 % of control | dose: 200.0 mg/kg/injection, schedule: Q01DX009 (ip), vehicle: other 113 % of control | dose: 300.0 mg/kg/injection, schedule: Q01DX009 (ip), vehicle: other 120 % of control | dose: 400.0 mg/kg/injection, schedule: Q01DX001 (ip), vehicle: other 112 % of control
